According to patent publication US10246426B2, “Triazole compounds as T-type calcium channel blockers” (IDORSIA PHARMACEUTICALS LTD, priority 2014, dated 2019):

Target: Cav3.2 (Homo sapiens, UniProt O95180)
Assay: Calcium flux FLIPR assay, HEK293 cells recombinantly expressing Cav3.2
Type: cell-based
Conditions: Cav3.2-channel, Ca2+ entry stimulated by 10 mM CaCl2
Description: In Vitro Methods—Measurement of Calcium Channel Flux by Means of FLIPR Assays.
HEK293 cells recombinantly expressing either voltage-dependent T-type calcium channel subunit […] (Cav3.2) or voltage-dependent L-type calcium channel subunit alpha-1C (Cav1.2) are assayed for calcium flux using the calcium indicator dye Fluo-4-AM (Molecular Devices) and FLIPR technology (Fluorometric Imaging Plate Reader, Molecular Devices) (Xie X, Van Deusen A L, Vitko I, Babu D A, Davies L A, Huynh N, Cheng H, Yang N, Barrett P Q, Perez-Reyes E. Validation of high throughput screening assays against three subtypes of Ca(v)3 T-type channels using molecular and pharmacologic approaches. Assay and Drug Development Technologies 2007, 5(2), 191-203). The HEK293 cells recombinantly expressing Cav3.2 are maintained in DMEM growth medium (Life Technologies) supplemented with 10% Fetal Bovine Serum (FBS), 100 U/ml penicilin (Life Technologies), 100 μg/ml streptomycin (Life Technologies) and 1 mg/ml G418 (Life Technologies). HEK293 cells recombinantly expressing Cav1.2 are maintained in DMEM growth medium (Life technologies) supplemented with 10% FBS, 0.1 mg/ml G418 (Life Technologies), 0.1 mg/ml hygromycin (Life Technologies) and 40 ug/ml zeocin (Life Technologies).
Cells are washed once with PBS, then dissociated in 0.25% trypsin/EDTA (Life Technologies) and seeded into poly-D-lysine coated 384-well black, clear bottom plates (BD Biosciences) at a density of 30,000 cells/well. The seeded plates are incubated overnight at 37° C.
Immediately prior to performing the assay, medium is removed and cells are treated for 1 hour at 37° C. with loading buffer containing HBSS 1× (137 mM NaCl; 5.4 mM KCl; 0.25 mM Na2HPO4; 1.3 mM CaCl2; 0.4 mM MgSO04; 0.5 mM MgCl2; 0.4 mM KH2PO4, pH 7.4), 0.375 g/L NaHCO3, 20 mM Hepes, supplemented with 3 μM Fluo-4-AM and 0.15% Pluronic (Life Technologies). The cells are then washed three times with assay buffer (HBSS 1×; 0.375 g/L NaHCO3; 20 mM Hepes; 1% FBS; pH 7.4) and allowed to rest in 50 μl of wash buffer for 30 minutes.
Stock solutions of test compounds are prepared to a concentration of 10 mM in DMSO. For the Cav3.2 assay, serial dilutions of the compounds are prepared in TEAC buffer (100 mM tetraethylammonium chloride; 20 mM Hepes; 2.5 mM CaCl2; 5 mM KCl; 1 mM MgCl2; 1% FBS; pH 7.2), for the Cav1.2 assay serial dilutions are prepared in assay buffer. […] The compounds are incubated with the cells for 3 minutes and Ca2+ entry is stimulated by adding either CaCl2 to a final concentration of 10 mM (Cav3.2 assay) or by adding KCl to a final concentration of 20 mM (Cav1.2 assay). The kinetics of fluorescence increase are recorded for every well and the area under the fluorescence trace for every compound concentration is used to generate inhibition curves using non-linear regression sigmoidal concentration-response curve analysis with in-house software. IC50 values are calculated and represent the compound concentration required to inhibit 50% of the signal that is obtained in the presence of vehicle instead of test compound.

Cav3.2, sequence (O95180 whole entry, looked up): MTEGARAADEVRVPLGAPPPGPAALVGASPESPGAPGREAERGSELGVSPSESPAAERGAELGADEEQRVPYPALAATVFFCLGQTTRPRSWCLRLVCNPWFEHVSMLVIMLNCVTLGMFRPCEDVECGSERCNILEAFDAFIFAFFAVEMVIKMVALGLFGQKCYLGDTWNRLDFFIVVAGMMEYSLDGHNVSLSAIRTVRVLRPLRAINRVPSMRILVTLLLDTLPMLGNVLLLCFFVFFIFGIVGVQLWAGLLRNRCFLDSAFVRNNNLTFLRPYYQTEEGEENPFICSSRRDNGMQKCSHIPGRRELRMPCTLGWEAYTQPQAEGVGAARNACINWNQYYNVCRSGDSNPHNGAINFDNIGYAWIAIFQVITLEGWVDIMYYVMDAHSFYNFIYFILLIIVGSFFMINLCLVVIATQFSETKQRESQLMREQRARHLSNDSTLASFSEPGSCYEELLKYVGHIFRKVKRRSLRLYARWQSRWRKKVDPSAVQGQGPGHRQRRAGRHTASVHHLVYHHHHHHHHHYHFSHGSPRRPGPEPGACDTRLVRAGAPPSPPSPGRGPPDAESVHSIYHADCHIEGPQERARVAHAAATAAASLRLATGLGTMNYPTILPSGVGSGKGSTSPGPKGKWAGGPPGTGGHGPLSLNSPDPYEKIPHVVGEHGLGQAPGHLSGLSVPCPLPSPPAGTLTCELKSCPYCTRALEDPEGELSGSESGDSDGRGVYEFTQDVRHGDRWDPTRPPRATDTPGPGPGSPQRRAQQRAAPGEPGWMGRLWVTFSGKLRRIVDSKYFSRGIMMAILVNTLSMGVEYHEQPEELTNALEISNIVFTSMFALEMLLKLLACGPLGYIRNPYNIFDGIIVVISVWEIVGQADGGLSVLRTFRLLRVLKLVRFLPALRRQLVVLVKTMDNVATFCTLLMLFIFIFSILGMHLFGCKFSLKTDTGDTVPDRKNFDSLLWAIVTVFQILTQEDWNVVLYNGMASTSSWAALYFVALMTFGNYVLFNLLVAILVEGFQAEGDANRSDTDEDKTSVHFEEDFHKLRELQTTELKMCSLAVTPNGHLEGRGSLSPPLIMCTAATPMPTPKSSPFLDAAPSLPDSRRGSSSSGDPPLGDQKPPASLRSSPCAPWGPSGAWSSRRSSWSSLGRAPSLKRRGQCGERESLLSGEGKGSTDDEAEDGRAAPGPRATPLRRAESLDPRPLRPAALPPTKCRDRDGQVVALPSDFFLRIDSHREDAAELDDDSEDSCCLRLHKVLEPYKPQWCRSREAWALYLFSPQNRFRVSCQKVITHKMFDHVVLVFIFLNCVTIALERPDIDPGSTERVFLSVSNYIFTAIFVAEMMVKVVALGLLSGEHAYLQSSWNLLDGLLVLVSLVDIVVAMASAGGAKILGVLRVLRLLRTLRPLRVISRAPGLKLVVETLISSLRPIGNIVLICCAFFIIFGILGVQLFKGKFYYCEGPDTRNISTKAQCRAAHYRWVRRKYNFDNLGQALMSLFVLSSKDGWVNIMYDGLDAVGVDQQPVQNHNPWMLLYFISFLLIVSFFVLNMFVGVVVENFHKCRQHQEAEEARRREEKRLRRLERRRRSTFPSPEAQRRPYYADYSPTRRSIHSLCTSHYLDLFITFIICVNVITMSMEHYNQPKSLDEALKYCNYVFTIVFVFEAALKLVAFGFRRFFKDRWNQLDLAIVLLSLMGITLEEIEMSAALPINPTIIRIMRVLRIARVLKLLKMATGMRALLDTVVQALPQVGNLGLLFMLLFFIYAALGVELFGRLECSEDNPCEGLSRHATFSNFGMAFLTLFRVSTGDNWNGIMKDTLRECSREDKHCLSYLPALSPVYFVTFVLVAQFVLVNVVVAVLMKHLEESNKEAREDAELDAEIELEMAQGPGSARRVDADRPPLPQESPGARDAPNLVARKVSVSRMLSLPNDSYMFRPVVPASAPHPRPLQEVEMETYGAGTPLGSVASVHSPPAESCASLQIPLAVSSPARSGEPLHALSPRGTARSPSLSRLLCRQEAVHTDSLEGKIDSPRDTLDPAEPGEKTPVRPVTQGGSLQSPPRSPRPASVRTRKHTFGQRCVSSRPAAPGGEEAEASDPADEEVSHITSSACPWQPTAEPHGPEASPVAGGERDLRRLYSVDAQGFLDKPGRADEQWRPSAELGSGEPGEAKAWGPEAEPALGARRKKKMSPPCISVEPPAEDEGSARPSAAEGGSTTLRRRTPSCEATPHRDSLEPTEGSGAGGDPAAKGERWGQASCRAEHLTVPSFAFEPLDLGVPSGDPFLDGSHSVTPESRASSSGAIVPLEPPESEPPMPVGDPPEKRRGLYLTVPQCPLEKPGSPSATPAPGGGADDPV

SMILES	IC50 [nM]
COc1cc(Cn2ncc(NC(=O)Cc3ccc(N4CCC(F)(F)C4)nc3)n2)ccc1F [Example 115, 2-[6-(3,3-Difluoro-pyrrolidin-1-yl)-pyridin-3-yl]-N-[2-(4-fluoro-3-methoxy-benzyl)-2H-[1,2,3]triazol-4-yl]-acetamide]	45
COc1ccc(Cn2ncc(NC(=O)Cc3ccc(C(C)C)cc3)n2)cc1C#N [Example 205, N-[2-(3-Cyano-4-methoxy-benzyl)-2H-[1,2,3]triazol-4-yl]-2-(4-isopropyl-phenyl)-acetamide]	160
CCOc1ccc(Cn2ncc(NC(=O)Cc3ccc(N4CCC(F)(F)C4)nc3)n2)cc1 [Example 41, 2-[6-(3,3-Difluoro-pyrrolidin-1-yl)-pyridin-3-yl]-N-[2-(4-ethoxy-benzyl)-2H-[1,2,3]triazol-4-yl]-acetamide]	18
COc1cc(Cn2ncc(NC(=O)Cc3ccc(OC4CC(F)(F)C4)cc3)n2)ccc1F [Example 114]	73
COc1c(F)cc(Cn2ncc(NC(=O)Cc3ccc(C4(OC)COC4)cc3)n2)cc1F [Example 143, N-[2-(3,5-Difluoro-4-methoxy-benzyl)-2H-[1,2,3]triazol-4-yl]-2-[4-(3-methoxy-oxetan-3-yl)-phenyl]-acetamide]	76
N#Cc1ccc(Cn2ncc(NC(=O)Cc3ccc(C(F)(F)F)cc3)n2)cc1F [Example 159, N-[2-(4-Cyano-3-fluoro-benzyl)-2H-[1,2,3]triazol-4-yl]-2-(4-trifluoromethyl-phenyl)-acetamide]	61
CC1(c2ccc(CC(=O)Nc3cnn(Cc4ccc(OC(F)(F)F)cc4)n3)cc2)COC1 [Example 93, 2-[4-(3-Methyl-oxetan-3-yl)-phenyl]-N-[2-(4-trifluoromethoxy-benzyl)-2H-[1,2,3]triazol-4-yl]-acetamide]	15
COc1ccc(Cn2ncc(NC(=O)Cc3ccc(OC4CC(F)(F)C4)cc3)n2)cc1C#N [Example 223, N-[2-(3-Cyano-4-methoxy-benzyl)-2H-[1,2,3]triazol-4-yl]-2-[4-(3,3-difluoro-cyclobutoxy)-phenyl]-acetamide]	120
COc1ccc(Cn2ncc(NC(=O)Cc3ccc(OCC4COC4)cc3)n2)cc1F [Example 120, N-[2-(3-Fluoro-4-methoxy-benzyl)-2H-[1,2,3]triazol-4-yl]-2-[4-(oxetan-3-ylmethoxy)-phenyl]-acetamide]	550
Cc1cc(CC(=O)Nc2cnn(Cc3ccc(C#N)c(F)c3)n2)ccc1OCC(F)(F)F [Example 199, N-[2-(4-Cyano-3-fluoro-benzyl)-2H-[1,2,3]triazol-4-yl]-2-[3-methyl-4-(2,2,2-trifluoro-ethoxy)-phenyl]-acetamide]	17
CCn1ncc2cc(CC(=O)Nc3cnn(Cc4ccc(F)c(OC)c4)n3)ccc21 [Example 117, 2-(1-Ethyl-1H-indazol-5-yl)-N-[2-(4-fluoro-3-methoxy-benzyl)-2H-[1,2,3]triazol-4-yl]-acetamide]	80
Cc1ccc(Cn2ncc(NC(=O)Cc3ccc(N4CCCC4)nc3)n2)cc1 [Example 68, N-[2-(4-Methyl-benzyl)-2H-[1,2,3]triazol-4-yl]-2-(6-pyrrolidin-1-yl-pyridin-3-yl)-acetamide]	45
Cc1ccc(Cn2ncc(NC(=O)Cc3ccc(C(C)(C)C)cc3)n2)cc1 [Example 66, 2-(4-tert-Butyl-phenyl)-N-[2-(4-methyl-benzyl)-2H-[1,2,3]triazol-4-yl]-acetamide]	70
COc1cc(Cn2ncc(NC(=O)Cc3ccc(C4(OC)COC4)cc3)n2)ccc1F [Example 110, N-[2-(4-Fluoro-3-methoxy-benzyl)-2H-[1,2,3]triazol-4-yl]-2-[4-(3-methoxy-oxetan-3-yl)-phenyl]-acetamide]	140

Further lines, results first:

IC50 [nM]	SMILES
23	COc1c(F)cc(Cn2ncc(NC(=O)Cc3ccc4c(cnn4C)c3)n2)cc1F [Example 82, N-[2-(3,5-Difluoro-4-methoxy-benzyl)-2H-[1,2,3]triazol-4-yl]-2-(1-methyl-1H-indazol-5-yl)-acetamide]
70	CCCn1ncc2cc(CC(=O)Nc3cnn(Cc4ccc(C#N)cc4)n3)ccc21 [Example 104, N-[2-(4-Cyano-benzyl)-2H-[1,2,3]triazol-4-yl]-2-(1-propyl-1H-indazol-5-yl)-acetamide]
210	N#Cc1ccc(Cn2ncc(NC(=O)Cc3ccc(OCC4COC4)cc3)n2)cc1F [Example 131, N-[2-(4-Cyano-3-fluoro-benzyl)-2H-[1,2,3]triazol-4-yl]-2-[4-(oxetan-3-ylmethoxy)-phenyl]-acetamide]
560	CCN(CC)c1ccc(CC(=O)Nc2cnn(Cc3ccc(OC)c(OC)c3)n2)cn1 [Example 47, 2-(6-Diethylamino-pyridin-3-yl)-N-[2-(3,4-dimethoxy-benzyl)-2H-[1,2,3]triazol-4-yl]-acetamide]
130	COCCOc1ccc(Cn2ncc(NC(=O)Cc3ccc(C(C)(C)C)cc3)n2)cc1 [Example 86, 2-(4-tert-Butyl-phenyl)-N-{2-[4-(2-methoxy-ethoxy)-benzyl]-2H-[1,2,3]triazol-4-yl}-acetamide]
19	CC(C)c1ccc(CC(=O)Nc2cnn(Cc3ccc(C#N)cc3)n2)cc1 [Example 26, N-[2-(4-Cyano-benzyl)-2H-[1,2,3]triazol-4-yl]-2-(4-isopropyl-phenyl)-acetamide]
83	CC(C)(C)c1ccc(CC(=O)Nc2cnn(Cc3ccc(OC(F)(F)F)c(F)c3)n2)cc1 [Example 184, 2-(4-tert-Butyl-phenyl)-N-[2-(3-fluoro-4-trifluoromethoxy-benzyl)-2H-[1,2,3]triazol-4-yl]-acetamide]
190	COc1cc(Cn2ncc(NC(=O)Cc3ccc4cnn(C)c4c3)n2)ccc1F [Example 109, N-[2-(4-Fluoro-3-methoxy-benzyl)-2H-[1,2,3]triazol-4-yl]-2-(1-methyl-1H-indazol-6-yl)-acetamide]
18	Cn1ccc2cc(CC(=O)Nc3cnn(Cc4ccc(C#N)c(F)c4)n3)ccc21 [Example 70, N-[2-(4-Cyano-3-fluoro-benzyl)-2H-[1,2,3]triazol-4-yl]-2-(1-methyl-1H-indol-5-yl)-acetamide]
32	CN(c1ccc(CC(=O)Nc2cnn(Cc3ccc(F)c(F)c3)n2)cn1)C1CC1 [Example 11]
30	Cc1ccc(Cn2ncc(NC(=O)Cc3ccc4c(ccn4C)c3)n2)cc1 [Example 64, N-[2-(4-Methyl-benzyl)-2H-[1,2,3]triazol-4-yl]-2-(1-methyl-1H-indol-5-yl)-acetamide]
48	COc1ccc(Cn2ncc(NC(=O)Cc3ccc4c(c3)c(C)cn4C)n2)cc1F [Example 129, 2-(1,3-Dimethyl-1H-indol-5-yl)-N-[2-(3-fluoro-4-methoxy-benzyl)-2H-[1,2,3]triazol-4-yl]-acetamide]
38	Cn1ncc2cc(CC(=O)Nc3cnn(Cc4ccc(F)cc4)n3)ccc21 [Example 56, N-[2-(4-Fluoro-benzyl)-2H-[1,2,3]triazol-4-yl]-2-(1-methyl-1H-indazol-5-yl)-acetamide]
49	COc1c(F)cc(Cn2ncc(NC(=O)Cc3ccc(C4(C)COC4)cc3)n2)cc1F [Example 78, N-[2-(3,5-Difluoro-4-methoxy-benzyl)-2H-[1,2,3]triazol-4-yl]-2-[4-(3-methyl-oxetan-3-yl)-phenyl]-acetamide]
57	COc1cc(Cn2ncc(NC(=O)Cc3ccc(OCC4CC(F)(F)C4)cc3)n2)ccc1F [Example 111, 2-[4-(3,3-Difluoro-cyclobutylmethoxy)-phenyl]-N-[2-(4-fluoro-3-methoxy-benzyl)-2H-[1,2,3]triazol-4-yl]-acetamide]
20	Cn1ccc2cc(CC(=O)Nc3cnn(Cc4ccc(OC(F)F)cc4)n3)ccc21 [Example 89, N-[2-(4-Difluoromethoxy-benzyl)-2H-[1,2,3]triazol-4-yl]-2-(1-methyl-1H-indol-5-yl)-acetamide]
110	N#Cc1ccc(Cn2ncc(NC(=O)Cc3ccc(S(F)(F)(F)(F)F)cc3)n2)cc1F [Example 232, N-(2-(4-cyano-3-fluorobenzyl)-2H-1,2,3-triazol-4-yl)-2-(4-(pentafluoro-λ6-sulfanyl)phenyl)acetamide]
